Experimental findings from patent publication US7335679B2 (Arizona Board of Regents on behalf of the University of …, priority 2001, dated 2008) are described below.

The test system of this series is C57BL6 mice. Kind of series: in vivo toxicity in mice, ip daily for 4 days. The settings on record: ip daily × 4, MTD = >10% body weight loss. The source says: Highlighted are the compounds being made for antitumor testing.

For the molecule `COC[C@H]1OC(=O)c2coc3c2[C@@]1(C)C1=C(C3=O)[C@@H]2CCC(=O)[C@@]2(C)C[C@H]1OC(C)=O` [wortmannin, reference compound], the “Maximum tolerated dose mg/kg ip qD × 4” value was found to be 2.5 mg/kg.
